Reference: US11353463B2, “Redox-based reagents for methionine bioconjugation” (The Regents of the University of California, priority 2016, dated 2022)

Legend:
[1] = target: bovine serum albumin (BSA) (Bos taurus, UniProt P02769); experiment: ReACT labeling of BSA, CuAAC with Cy3-azide, in-gel fluorescence imaging
Experimental: FIG. 1A Left panel: Acid-base conjugation strategies for cysteine-based protein functionalization; Right panel: Redox-Activated Chemical Tagging (ReACT) strategies for methionine-based protein functionalization. Oxaziridine (Ox) compounds serve as oxidant-sulfimide conjugation product. (B) Model redox conjugation reaction with 25 μM of N-acetyl-L-methionine methyl ester (Si) and 27.5 μM of various oxaziridine compounds as substrates in co-solvent. (C) Number of unique redox conjugation carrying peptide on representative amino acid, namely Met, Lys and Cys by labeling HeLa cell lysate with Ox4 at the final concentration of 1 mM for 10 min. (D) Yield of conjugation reaction was performed with 15 μM of BSA carrying 4 methionine per protein and 100 μM Ox4 at indicated time point as measured by in-gel fluorescence imaging.
ReACT as a method for site-selective methionine conjugation of proteins was evaluated. […] The resulting redox conjugation yield to BSA was analyzed by in-gel fluorescence imaging. […] The reactivity of various alkyne- and azide-containing oxaziridine probes with CaM model protein was assessed (FIG. 2B). […]

[2] = Stability of redox conjugation product sulfimide (NMR); type: physicochemical; conditions: salt form under strong acidic condition
Experimental: The reactivity of oxaziridine probes with other biologically relevant amino acid competitors was evaluated. […] HeLa cell lysates were treated with Ox4, trypsin digested, and then analyzed by LC-MS/MS for probe modification on all nucleophilic amino acids using the X!Tandem program^43. […] Finally, the chemical stability of the sulfimide methionine conjugation product was tested, finding that this linkage is resistant to acidic and basic conditions, elevated temperature, as well as treatment with a strong protein disulfide reducing agent such as tris(2-carboxyethyl)phophine (TCEP).
The stability of sulfimides were tested by treatment of sulfimides S2 with 5 mM TCEP or treatment of sulfimides S3 with 1 N HC1, 1 N NaOH or 80° C. in co-solvent (d-MeOD/D2O=1:1). The reactions were monitored by NMR after 1 h and 18 h and the reaction conversions were calculated based on NMR data.

bovine serum albumin (BSA), sequence (P02769 25-607): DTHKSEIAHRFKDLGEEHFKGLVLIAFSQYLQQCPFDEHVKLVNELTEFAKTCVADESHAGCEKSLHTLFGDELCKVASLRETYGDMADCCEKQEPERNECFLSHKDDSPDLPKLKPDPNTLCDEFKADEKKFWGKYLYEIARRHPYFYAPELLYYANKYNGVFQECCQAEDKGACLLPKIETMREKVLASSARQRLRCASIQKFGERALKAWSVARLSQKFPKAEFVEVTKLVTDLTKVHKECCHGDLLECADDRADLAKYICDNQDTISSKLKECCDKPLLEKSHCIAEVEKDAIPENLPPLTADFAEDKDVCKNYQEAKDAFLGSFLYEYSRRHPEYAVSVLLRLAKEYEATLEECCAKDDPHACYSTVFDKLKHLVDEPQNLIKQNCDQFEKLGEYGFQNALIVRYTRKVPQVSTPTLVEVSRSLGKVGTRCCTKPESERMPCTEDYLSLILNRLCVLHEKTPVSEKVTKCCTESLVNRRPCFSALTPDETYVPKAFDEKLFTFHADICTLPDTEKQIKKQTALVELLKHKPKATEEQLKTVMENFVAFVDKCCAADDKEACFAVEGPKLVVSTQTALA

redox conjugation yield to BSA ([1]; within 1-2 min, 15 μM BSA, 100 μM Ox4) | labeling of BSA ([1]; within the first 5 s following addition of Ox4) | stability in aqueous solution [2] | SMILES
> 95% | 50% |  | C#CCNC(=O)N1OC1c1ccccc1 (stereo not drawn) [Ox4, 3-Phenyl-N-(prop-2-yn-1-yl)-1,2-oxaziridine-2-carboxamide]
 |  | stable in aqueous solution | CCNC(=O)N[S+](C)c1ccccc1.[Cl-] (stereo not drawn) [Ox S4]
